Data set [1] concerns RAW264.7. As to the kind of experiment: Antiinflammatory activity against LPS-stimulated mouse RAW264.7 cells assessed inhibition of TNFalpha release at 0.5 uM incubated for 24 hrs in presence of LPS by ELISA. It is filed as functional.
The nature of data set [2]: Cytotoxicity against mouse RAW264.7 cells assessed as cell viability at 0.5 uM incubated for 24 hrs by CCK8 assay. It is filed as cell-based. The following applies: read-out: Activity. (In general: Formazan colour is commonly taken as a measure of viable cells.)
Data set [3] deals with RAW264.7. Put plainly: Antiinflammatory activity against LPS-stimulated mouse RAW264.7 cells assessed inhibition of TNFalpha release incubated for 24 hrs in presence of LPS by ELISA. Format: functional, cell-based. The settings on record: RAW264.7, 24 h. (An ELISA detects its analyte on a solid surface through an enzyme-linked reagent.)
Data set [4] in a line: Cytotoxicity against mouse RAW264.7 cells assessed as reduction in cell viability incubated for 24 hrs by CCK8 assay. It is filed as cell-based.
The target in data set [5] is T1, Estrogen receptor beta (Homo sapiens, UniProt Q92731). As to the kind of experiment: Binding affinity to human ERbeta LBD measured after 2 hrs by competitive fluorometric binding assay.
T1 sequence (Q92731 whole entry, the tested form may be a part): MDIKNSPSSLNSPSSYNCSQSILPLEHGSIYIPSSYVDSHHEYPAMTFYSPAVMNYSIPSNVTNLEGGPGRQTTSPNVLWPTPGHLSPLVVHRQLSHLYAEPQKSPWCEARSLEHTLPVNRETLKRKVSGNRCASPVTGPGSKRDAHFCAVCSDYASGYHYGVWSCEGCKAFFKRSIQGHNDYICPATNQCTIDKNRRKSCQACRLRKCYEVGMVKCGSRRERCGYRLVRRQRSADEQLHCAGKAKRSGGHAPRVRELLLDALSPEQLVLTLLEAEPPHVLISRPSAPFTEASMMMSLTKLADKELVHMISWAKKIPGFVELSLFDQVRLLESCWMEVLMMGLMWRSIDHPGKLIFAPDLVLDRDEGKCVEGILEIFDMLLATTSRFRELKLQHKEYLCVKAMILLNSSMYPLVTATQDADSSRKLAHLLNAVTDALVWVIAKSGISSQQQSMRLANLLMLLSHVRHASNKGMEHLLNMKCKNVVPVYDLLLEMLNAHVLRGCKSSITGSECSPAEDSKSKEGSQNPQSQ
The subject of data set [6] is Mus musculus. As to the kind of experiment: Antiinflammatory activity against DSS-induced ulcerative colitis C57BL/6J mouse model assessed as reduction in body weight loss at 30 mg/kg, po administered daily via gavage and measured for 11 days. It is filed as functional, organism-based. The settings on record: time 11.0 day.
Data set [7] concerns the target T2, Estrogen receptor (Homo sapiens) (UniProt P03372).
T2 sequence (whole entry): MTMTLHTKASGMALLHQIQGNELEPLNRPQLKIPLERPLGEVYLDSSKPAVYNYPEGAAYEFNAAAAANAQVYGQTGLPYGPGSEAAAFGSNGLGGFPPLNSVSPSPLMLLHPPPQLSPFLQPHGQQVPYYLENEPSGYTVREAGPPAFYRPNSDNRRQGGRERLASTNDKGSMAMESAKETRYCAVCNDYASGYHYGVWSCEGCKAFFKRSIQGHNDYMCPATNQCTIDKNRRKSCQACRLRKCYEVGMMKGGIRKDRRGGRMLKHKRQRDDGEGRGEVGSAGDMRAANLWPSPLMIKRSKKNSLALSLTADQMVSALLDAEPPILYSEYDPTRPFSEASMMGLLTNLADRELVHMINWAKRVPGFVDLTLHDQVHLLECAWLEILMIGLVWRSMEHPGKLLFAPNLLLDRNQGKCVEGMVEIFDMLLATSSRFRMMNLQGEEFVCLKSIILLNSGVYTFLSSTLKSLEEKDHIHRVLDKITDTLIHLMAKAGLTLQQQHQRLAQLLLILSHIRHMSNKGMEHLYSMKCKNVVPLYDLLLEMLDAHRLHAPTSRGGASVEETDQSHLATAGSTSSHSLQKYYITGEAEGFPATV
As to the kind of experiment: Binding affinity to human ERalpha LBD measured after 2 hrs by competitive fluorometric binding assay relative to 17beta-estradiol.

For data set [8], the system named is Mus musculus. As to the kind of experiment: Antiinflammatory activity against DSS-induced ulcerative colitis C57BL/6J mouse model assessed as reduction in disease activity index at 30 mg/kg, po administered daily via gavage and measured for 11 days. It is filed as functional, organism-based. The following applies: time 11.0 day.
The species named for data set [9] is Homo sapiens. Put plainly: Selectivity ratio of relative binding affinity for human ERalpha LBD to relative binding affinity for human ERbeta LBD.
The test system of data set [10] is Mus musculus. As to the kind of experiment: Antiinflammatory activity against DSS-induced ulcerative colitis C57BL/6J mouse model assessed as restoration of normal stool consistency at 30 mg/kg, po administered daily via gavage and measured for 11 days. The settings on record: time 11.0 day. Format: functional, organism-based.
The subject of data set [11] is Mus musculus. As to the kind of experiment: Antiinflammatory activity against DSS-induced ulcerative colitis C57BL/6J mouse model assessed as reduction in fecal occult blood at 30 mg/kg, po administered daily via gavage and measured for 11 days. It is filed as functional, organism-based. The settings on record: time 11.0 day.
For data set [12], the species on record is Homo sapiens. As to the kind of experiment: Selectivity ratio of Ki for human ERalpha LBD to Ki for human ERbeta LBD.
Another data set has as its target T3, Estrogen receptor (Homo sapiens, UniProt P03372).
T3 sequence (P03372 whole entry): T2 sequence (whole entry)
Put plainly: Binding affinity to human ERalpha LBD measured after 2 hrs by competitive fluorometric binding assay.

The target of data set [13] is T1, Estrogen receptor beta. As to the kind of experiment: Binding affinity to human ERbeta LBD measured after 2 hrs by competitive fluorometric binding assay relative to 17beta-estradiol.

The source made the active and inactive calls. No cut-off for these calls is given here.

Usually inhibition stands for the relative decrease from the control value, in per cent. `COc1ccc2cc(-c3ccc4c(c3)OCO4)n(C(CSc3ccc(F)cc3)OC)c(=O)c2c1OC` (centres undefined): in the data set with RAW264.7 [1], the inhibition at 0.5 µM was found to be 77.4%. In addition, in data set [2], the viability at 24 h, 0.5 µM was determined as 77.8%.

With `COc1ccc2cc(-c3ccc4c(c3)OCO4)n(C(CSc3cc(C(F)(F)F)cc(C(F)(F)F)c3)OC)c(=O)c2c1OC` (centres undefined), the inhibition at 0.5 µM in the data set on RAW264.7 [1] came to 78.3%. The viability at 24 h, 0.5 µM in [2] was 82.8%.

With `COc1ccc2cc(-c3ccc4c(c3)OCO4)n(C(CSc3ccc([N+](=O)[O-])cc3)OC)c(=O)c2c1OC` (centres undefined), the inhibition at 0.5 µM with RAW264.7 [1] amounted to 87.8%. For the same compound, in data set [2], the viability at 24 h, 0.5 µM was determined as 80.1%.

A word on the IC50: it is the concentration that inhibits the measured activity by half. The term CC50 denotes the concentration that lowers cell viability or growth by half. As for `COc1ccc2cc(-c3ccc4c(c3)OCO4)n([C@@H](CSc3ccc([N+](=O)[O-])cc3)OC)c(=O)c2c1OC`, the IC50 with RAW264.7 [3] came to 56 nM. The CC50 at 24 h in data set [4] was found to be 7040 nM.

For the compound `COc1ccc2cc(-c3ccc4c(c3)OCO4)n(C(CSc3ccc(Br)cc3)OC)c(=O)c2c1OC` (centres undefined), the inhibition at 0.5 µM in the data set on RAW264.7 [1] was 84.5%. Further, in data set [2], the viability at 24 h, 0.5 µM was 70.9%.

For `COc1ccc2cc(-c3ccc4c(c3)OCO4)n(C(CSc3ccccc3Br)OC)c(=O)c2c1OC` (centres undefined), the inhibition at 0.5 µM with RAW264.7 [1] was 80.7%. Further, in data set [2], the viability at 24 h, 0.5 µM worked out at 80.7%.

`COc1ccc2cc3[n+](cc2c1OC)CCc1cc2c(cc1-3)OCO2` [BERBERINE]: in the data set with RAW264.7 [1], the inhibition at 0.5 µM was 4.1%. Also, the viability at 24 h, 0.5 µM in [2] turned out to be 129%.

By Ki is commonly meant the dissociation constant of the complex between target and ligand, obtained from inhibition or displacement. For `COc1ccc2cc(-c3ccc4c(c3)OCO4)n([C@@H](COc3ccc([N+](=O)[O-])cc3)OC)c(=O)c2c1OC`, the Ki came to 761 nM at Estrogen receptor beta [5] and 2320 nM on Estrogen receptor. Further, the outcome in the data set on Mus musculus [6], in the data set on Mus musculus [8], with Mus musculus [10] and with Mus musculus [11] was Active. Also, the IC50 in the data set with RAW264.7 [3] is 14 nM. Further, the CC50 at 24 h in data set [4] was found to be 1820 nM. The RBA in [7] is 0.24%; at Estrogen receptor beta [13] it was 1.04%. Moreover, the Ratio in the data set listed under Homo sapiens [9] stood at 0.23. The Ratio Ki in the data set filed under Homo sapiens [12] came out at 3.

On to `COc1ccc2cc(-c3ccc4c(c3)OCO4)n(C(CSc3nc(C)cc(C)n3)OC)c(=O)c2c1OC` (centres undefined), for which the inhibition at 0.5 µM in the data set on RAW264.7 [1] came out at 69.7%. In data set [2], the viability at 24 h, 0.5 µM came to 101%.

In the case of `COc1ccc2cc(-c3ccc4c(c3)OCO4)n(C(CSc3ccccc3)OC)c(=O)c2c1OC` (centres undefined), the inhibition at 0.5 µM in the data set with RAW264.7 [1] is 49.4%. Moreover, the viability at 24 h, 0.5 µM in data set [2] amounted to 85.4%.

Consider `COc1ccc2cc(-c3ccc4c(c3)OCO4)n(C(CSc3ccc(C(F)(F)F)cc3)OC)c(=O)c2c1OC` (centres undefined), for which, in the data set with RAW264.7 [1], the inhibition at 0.5 µM came to 72.9%. In addition, the viability at 24 h, 0.5 µM in data set [2] came out at 98%.

Turning to `COc1ccc2cc(-c3ccc4c(c3)OCO4)n(C(CSc3ccc(C)cc3)OC)c(=O)c2c1OC` (centres undefined), in the data set with RAW264.7 [1], the inhibition at 0.5 µM was determined as 79.6%. Also, the viability at 24 h, 0.5 µM in [2] turned out to be 70.4%.

With `COc1ccc2cc(-c3ccc4c(c3)OCO4)n(C(CSc3cccc(Br)c3)OC)c(=O)c2c1OC` (centres undefined), the inhibition at 0.5 µM with RAW264.7 [1] came to 36.1%. Moreover, the viability at 24 h, 0.5 µM in [2] is 57%.

Consider `COc1ccc(SCC(OC)n2c(-c3ccc4c(c3)OCO4)cc3ccc(OC)c(OC)c3c2=O)cc1` (centres undefined), for which, in the data set with RAW264.7 [1], the inhibition at 0.5 µM was -3.4%. Moreover, the viability at 24 h, 0.5 µM in data set [2] was 80.8%.

As to `COc1ccc2cc(-c3ccc4c(c3)OCO4)n([C@H](COc3ccc([N+](=O)[O-])cc3)OC)c(=O)c2c1OC`, the figures for the Ki at Estrogen receptor beta [5] and on Estrogen receptor were 25600 nM and 17100 nM, respectively. The IC50 with RAW264.7 [3] was over 10000 nM. The CC50 at 24 h in data set [4] was over 2500 nM. Besides, the RBA (in data set [7]; on Estrogen receptor beta [13]) was 0.03% throughout. In addition, in the data set listed under Homo sapiens [9], the Ratio is 1.

Turning to `COc1ccc2cc(-c3ccc4c(c3)OCO4)n([C@H](CSc3ccc([N+](=O)[O-])cc3)OC)c(=O)c2c1OC`, in the data set with RAW264.7 [3], the IC50 is over 2500 nM. Further, the CC50 at 24 h in [4] is over 2500 nM.

Consider `COc1ccc2cc(-c3ccc4c(c3)OCO4)n(C(CSc3cccc(C(F)(F)F)c3)OC)c(=O)c2c1OC` (centres undefined), for which the inhibition at 0.5 µM with RAW264.7 [1] was determined as 69.2%. For the same compound, in data set [2], the viability at 24 h, 0.5 µM worked out at 93.3%.

For the origin of these results see ChEMBL document CHEMBL4823274, “Discovery of chiral N-2'-aryletheryl-1'-alkoxy-ethyl substituted arylisoquinolones with anti-inflammatory activity from the nucleophilic addition reactions of the thiophenols and oxazolinium” (Eur J Med Chem, 2021).
